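Assay format: 96-well plates, 48-hour exposure. GI50 is the concentration that inhibits growth by half. TGI: concentration producing complete growth inhibition.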
What was measured:
Assay in all cases: NCI tumour cell line growth inhibition, 48 h
UO-31 renal = tested on: UO-31 renal
MOLT-4 leukemia = tested on: MOLT-4 leukemia
K-562 leukemia = tested on: K-562 leukemia
NCI-H460 lung = tested on: NCI-H460 lung
SN12C renal = tested on: SN12C renal
UACC-62 melanoma = tested on: UACC-62 melanoma
OVCAR-3 ovarian = tested on: OVCAR-3 ovarian
EKVX NSCLC = tested on: EKVX NSCLC
HCT-15 colon = tested on: HCT-15 colon
NCI-H522 lung = tested on: NCI-H522 lung

Structure (SMILES) | TGI (UO-31 renal) [µM] | TGI (MOLT-4 leukemia) [µM] | TGI (K-562 leukemia) [µM] | TGI (NCI-H460 lung) [µM] | TGI (SN12C renal) [µM] | TGI (UACC-62 melanoma) [µM] | TGI (OVCAR-3 ovarian) [µM] | TGI (EKVX NSCLC) [µM] | GI50 (UO-31 renal) [µM] | GI50 (MOLT-4 leukemia) [µM] | GI50 (K-562 leukemia) [µM] | GI50 (NCI-H460 lung) [µM] | GI50 (HCT-15 colon) [µM] | TGI (HCT-15 colon) [µM] | GI50 (SN12C renal) [µM] | GI50 (UACC-62 melanoma) [µM] | GI50 (OVCAR-3 ovarian) [µM] | GI50 (EKVX NSCLC) [µM] | GI50 (NCI-H522 lung) [µM] | TGI (NCI-H522 lung) [µM]
CCCCCCCCCCCCCCC1OC(=O)c2ccccc21 (stereo not drawn) | > 100 | > 100 | > 100 | > 100 | 75.9 | > 100 | > 100 | > 100 | – | – | – | – | – | – | – | – | – | – | – | –
O=C1c2ccccc2C(=O)c2c1ccc1[nH]c(CCl)nc21 | 9.22 | 8.04 | 17 | 15.1 | 4.87 | 4.99 | 3.03 | 10.7 | 2.72 | 1.68 | 2.98 | 3.97 | 1.45 | 3.1 | 2.08 | 2.06 | 1.64 | 2.59 | 1.63 | 3.53
O=C1NC(=O)C2C(=O)NC(=O)C1C2(c1ccccc1)c1ccc(Cl)cc1 (stereo not drawn) | > 100 | > 100 | > 100 | > 100 | > 100 | > 100 | > 100 | > 100 | – | – | – | – | – | > 100 | – | – | – | – | – | > 100
CN(C)CCNC(=O)c1cccc2nc3c(Cl)cccc3nc12 | > 40.5 | 10.4 | 8.74 | – | 49.5 | 3.87 | > 63.6 | 32.9 | – | – | – | – | – | 34.6 | – | – | – | – | – | > 100
Cn1cc(C2=C(c3ccc(OC[C@@H](O)CO)cc3)C(=O)NC2=O)c2ccccc21 | > 25 | > 25 | > 25 | > 25 | > 25 | > 25 | > 25 | – | > 25 | > 25 | > 25 | > 25 | > 25 | > 25 | > 25 | > 25 | > 25 | – | > 25 | > 25
CN(C)c1ccc2c(c1)oc(=O)c1ccccc12 | – | 73.3 | 26.9 | 58 | 25.8 | 30.4 | 16.4 | 52.3 | – | – | – | – | – | 27 | – | – | – | – | – | 20.9
COc1cc2c(c(OC)c1OC)-c1ccc(NCc3ccccc3)c(=O)cc1[C@@H](NC(C)=O)CC2 | 44.9 | > 87.5 | > 100 | 18 | 45.3 | 22.4 | 2.82 | – | 4.99 | 0.489 | 0.381 | 0.369 | 1.09 | > 48.4 | 0.629 | 0.526 | 0.309 | – | 0.327 | 1.52
COC(=O)C(CC(=O)c1cc2c(cc1I)OCO2)Cc1cc(OC)c(OC)c(OC)c1I (stereo not drawn) | – | > 100 | > 100 | > 100 | > 100 | > 100 | > 100 | > 100 | – | – | – | – | – | > 100 | – | – | – | – | – | > 100
Cc1c(N2C(=O)/C(=C\c3ccccc3O)N=C2c2ccccc2)c(=O)n(-c2ccccc2)n1C | > 100 | – | > 100 | > 100 | > 100 | > 100 | > 100 | > 100 | > 100 | – | > 100 | > 100 | > 100 | > 100 | > 100 | 53.9 | > 100 | 77 | 64 | > 100
N#Cc1nc(-c2ccc(F)cc2)oc1S(=O)(=O)N1CCOCC1 | 2.97 | 5.49 | 10.9 | 27.3 | 4.1 | 17.6 | 3.18 | 37 | 1.62 | 2.02 | 1.7 | 12.6 | 1.98 | 5.37 | 1.77 | 4.79 | 1.75 | 13.8 | 0.675 | 3.13
CCOC(=O)c1cc(-c2ccc([N+](=O)[O-])cc2)n(-c2ccc(C(=O)O)c(O)c2)c1C | 18.3 | 20.7 | > 100 | 17 | 22.6 | 15.4 | 9.53 | 18 | 3.74 | 3.37 | 3.82 | 4.16 | 3.02 | 12.2 | 6.73 | 3.95 | 2.86 | 5.2 | 6.48 | 23.9
CC1CCC[P+](Cc2ccccc2)(c2ccccc2)CC1 (stereo not drawn) | > 100 | > 100 | > 100 | > 100 | > 100 | > 100 | – | > 100 | – | – | – | – | – | > 100 | – | – | – | – | – | –
COC(=O)c1c(OC)cccc1C(=O)O | > 100 | > 100 | > 100 | > 100 | > 100 | > 100 | > 100 | > 100 | – | – | – | – | – | > 100 | – | – | – | – | – | > 100
COc1nc2c(cc1S(=O)(=O)c1ccccc1)CCc1c-2cnn1-c1ccccc1Cl | > 100 | > 100 | > 100 | > 100 | > 100 | > 100 | > 100 | – | 3.13 | 4.76 | 5.23 | 26.3 | 6.24 | > 100 | 19.6 | 7.29 | 8.17 | – | 3.02 | > 100
ClCc1ccccc1CSc1ncnc2nc[nH]c12 | > 60 | > 60 | > 60 | > 60 | > 60 | > 60 | > 60 | > 60 | > 60 | > 60 | > 60 | > 60 | > 60 | > 60 | > 60 | > 60 | > 60 | > 60 | – | –
CCCCn1/c(=N/C(=S)N(C)C)ss/c1=N\C(=S)N(C)C | > 100 | > 100 | > 100 | > 100 | > 100 | > 100 | – | > 100 | – | – | – | – | – | > 100 | – | – | – | – | – | –
O=C(/C=C/c1cccs1)c1ccc(Cl)cc1 | > 100 | 48.9 | – | > 100 | > 100 | > 100 | – | > 100 | – | – | – | – | – | > 100 | – | – | – | – | – | –

From PubChem BioAssay (NCI)
